How the values were obtained:
Assay type in all cases: cell-based
WEE1 = target: T1, WEE1 (Homo sapiens, UniProt P30291+Q96SW2); assay: Western blot degradation of WEE1 in hPBMC
T1 construct: endogenous in cells; host or cells: hPBMC
Protocol: (§1) Conventional Western blot assay was performed to evaluate the effects of the compounds of the present disclosure on the expression of target proteins in cells.
(§2) • (1) Cell Seeding and Protein Harvesting: The selected cells were processed according to the cell seeding procedure and protein harvesting procedure in Table III-2.
(§3) • (2) To the collected supernatant, 5×SDS sample loading buffer was added, followed by denaturation at 95° C. for 5 minutes. The denatured samples were then separated by SDS-PAGE electrophoresis on a polyacrylamide gel. Proteins were transferred to a nitrocellulose membrane ([…] NC membrane), blocked with blocking buffer at room temperature for 1 hour, and subjected to antibody incubation and development procedures according to the antibody manufacturer's instructions (Cell Signaling Technology).
(§4) Half-Maximal Degradation Concentration value (the drug concentration required for degrading proteins by 50%, abbreviated as DC50) reads method: comparing the grayscale values of Western blot bands from drug-treated samples with those from blank DMSO-treated controls, and identifying the drug concentration range at which the grayscale value is half that of the DMSO-treated control bands.
(§5) DC50 values can be calculated using ImageJ software to measure grayscale values of Western blot bands from drug-treated samples. The concentration-response curve is fitted to estimate the drug concentration corresponding to half the grayscale value.
(§6) Target protein remaining (0%) refers to the percentage of target protein remaining in hPBMC cells after treatment with protein degrader compounds.
(§7) Calculation method for target protein remaining (0%): Use ImageJ software to measure grayscale values of Western blot bands from drug (protein degrader)-treated samples. The grayscale value of drug-treated bands is divided by that of internal control protein bands, and the resulting quotient is normalized to obtain the relative percentage of remaining target protein after protein degrader treatment.

IKZF1 = target: T2, IKZF1 (Homo sapiens, UniProt Q13422+Q96SW2); assay: Western blot degradation of IKZF1 in hPBMC
T2 construct: endogenous in cells; host or cells: hPBMC
Protocol: as §1, §2, §3, §4, §5, §6, §7

IKZF2 = target: T3, IKZF2 (Homo sapiens, UniProt Q96SW2+Q9UKS7); assay: Western blot degradation of IKZF2 in hPBMC
T3 construct: endogenous in cells; host or cells: hPBMC
Protocol: as §1, §2, §3, §4, §5, §6, §7

IKZF3 = target: T4, IKZF3 (Homo sapiens, UniProt Q96SW2+Q9UKT9); assay: Western blot degradation of IKZF3 in hPBMC
T4 construct: endogenous in cells; host or cells: hPBMC
Protocol: as §1, §2, §3, §4, §5, §6, §7

CK1a = target: T5, CK1a (Homo sapiens, UniProt P48729+Q96SW2); assay: Western blot degradation of CK1a in hPBMC
T5 construct: endogenous in cells; host or cells: hPBMC
Protocol: as §1, §2, §3, §4, §5, §6, §7

GSPT1 = target: T6, GSPT1 (Homo sapiens, UniProt P15170+Q96SW2); assay: Western blot degradation of GSPT1 in hPBMC
T6 construct: endogenous in cells; host or cells: hPBMC
Protocol: as §1, §2, §3, §4, §5, §6, §7

T2 sequence (Q13422 whole entry): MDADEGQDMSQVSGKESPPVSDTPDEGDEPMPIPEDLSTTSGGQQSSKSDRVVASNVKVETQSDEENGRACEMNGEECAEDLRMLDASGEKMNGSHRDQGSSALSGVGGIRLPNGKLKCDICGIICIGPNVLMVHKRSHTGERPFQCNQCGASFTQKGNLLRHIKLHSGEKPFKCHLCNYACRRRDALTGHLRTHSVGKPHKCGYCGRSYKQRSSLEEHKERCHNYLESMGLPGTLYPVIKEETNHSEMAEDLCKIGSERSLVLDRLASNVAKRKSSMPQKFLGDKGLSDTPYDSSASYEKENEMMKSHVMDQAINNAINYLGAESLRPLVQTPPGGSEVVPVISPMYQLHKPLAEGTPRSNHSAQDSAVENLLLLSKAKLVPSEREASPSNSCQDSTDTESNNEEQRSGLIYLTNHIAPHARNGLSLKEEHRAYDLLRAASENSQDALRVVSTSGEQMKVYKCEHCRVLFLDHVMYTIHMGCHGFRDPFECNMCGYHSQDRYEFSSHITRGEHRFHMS
T2 sequence (Q96SW2 whole entry): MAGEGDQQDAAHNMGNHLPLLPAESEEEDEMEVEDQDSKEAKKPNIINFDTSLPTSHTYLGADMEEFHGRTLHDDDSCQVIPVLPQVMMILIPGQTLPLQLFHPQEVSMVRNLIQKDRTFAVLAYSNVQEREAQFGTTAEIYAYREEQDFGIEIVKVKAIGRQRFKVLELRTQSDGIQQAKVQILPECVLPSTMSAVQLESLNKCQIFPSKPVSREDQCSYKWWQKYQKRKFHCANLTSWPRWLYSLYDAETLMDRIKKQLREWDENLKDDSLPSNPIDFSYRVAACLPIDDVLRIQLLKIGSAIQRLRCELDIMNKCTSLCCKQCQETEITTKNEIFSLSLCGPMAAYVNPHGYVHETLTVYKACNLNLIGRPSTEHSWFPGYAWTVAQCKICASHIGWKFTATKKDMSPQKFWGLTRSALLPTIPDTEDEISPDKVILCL
T2 sequence (Q16531 whole entry partner): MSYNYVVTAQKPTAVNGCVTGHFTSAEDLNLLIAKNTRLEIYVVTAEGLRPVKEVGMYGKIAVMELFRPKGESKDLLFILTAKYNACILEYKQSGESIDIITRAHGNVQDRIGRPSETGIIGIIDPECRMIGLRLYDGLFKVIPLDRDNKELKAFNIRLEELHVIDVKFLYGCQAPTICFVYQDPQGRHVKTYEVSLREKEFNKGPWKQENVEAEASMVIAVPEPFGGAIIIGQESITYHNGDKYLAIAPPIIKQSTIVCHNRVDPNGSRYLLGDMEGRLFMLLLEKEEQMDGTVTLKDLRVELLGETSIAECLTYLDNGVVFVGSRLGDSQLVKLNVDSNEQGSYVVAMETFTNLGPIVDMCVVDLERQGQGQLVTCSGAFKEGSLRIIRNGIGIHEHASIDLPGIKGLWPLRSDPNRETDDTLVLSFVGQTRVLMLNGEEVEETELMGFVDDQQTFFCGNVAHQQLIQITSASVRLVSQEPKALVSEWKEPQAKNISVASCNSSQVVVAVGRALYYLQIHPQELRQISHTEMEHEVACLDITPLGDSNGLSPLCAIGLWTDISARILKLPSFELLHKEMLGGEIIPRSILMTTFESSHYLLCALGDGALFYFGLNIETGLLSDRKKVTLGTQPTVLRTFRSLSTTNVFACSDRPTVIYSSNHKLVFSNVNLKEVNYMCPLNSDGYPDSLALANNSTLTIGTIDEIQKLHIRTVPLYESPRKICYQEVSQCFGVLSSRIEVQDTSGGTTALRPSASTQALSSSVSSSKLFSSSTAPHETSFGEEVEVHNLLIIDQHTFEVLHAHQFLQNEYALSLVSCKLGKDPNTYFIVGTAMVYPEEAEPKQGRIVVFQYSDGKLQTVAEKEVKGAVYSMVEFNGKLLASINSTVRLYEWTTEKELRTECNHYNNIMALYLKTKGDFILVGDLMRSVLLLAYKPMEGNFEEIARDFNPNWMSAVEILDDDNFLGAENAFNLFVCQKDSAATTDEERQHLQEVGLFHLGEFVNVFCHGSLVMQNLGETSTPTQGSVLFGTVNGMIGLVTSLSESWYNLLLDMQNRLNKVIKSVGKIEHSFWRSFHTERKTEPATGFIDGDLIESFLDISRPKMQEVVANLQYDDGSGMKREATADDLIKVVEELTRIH
T1 sequence (P30291 whole entry): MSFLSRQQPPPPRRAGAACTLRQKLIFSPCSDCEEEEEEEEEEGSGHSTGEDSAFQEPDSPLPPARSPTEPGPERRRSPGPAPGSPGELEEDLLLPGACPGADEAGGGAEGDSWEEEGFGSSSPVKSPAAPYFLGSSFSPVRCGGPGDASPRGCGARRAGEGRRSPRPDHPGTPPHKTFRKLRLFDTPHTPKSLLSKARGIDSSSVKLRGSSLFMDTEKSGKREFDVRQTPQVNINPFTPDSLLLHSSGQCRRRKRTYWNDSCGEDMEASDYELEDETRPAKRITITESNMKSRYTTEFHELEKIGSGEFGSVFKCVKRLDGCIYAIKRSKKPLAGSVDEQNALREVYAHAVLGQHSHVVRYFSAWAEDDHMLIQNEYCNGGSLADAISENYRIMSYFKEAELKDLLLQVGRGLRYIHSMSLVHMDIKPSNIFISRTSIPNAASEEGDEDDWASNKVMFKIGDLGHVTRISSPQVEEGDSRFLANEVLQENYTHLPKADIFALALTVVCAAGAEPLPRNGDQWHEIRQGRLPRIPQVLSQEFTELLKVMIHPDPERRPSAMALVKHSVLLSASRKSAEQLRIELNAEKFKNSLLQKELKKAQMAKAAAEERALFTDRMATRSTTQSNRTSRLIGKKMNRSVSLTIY
T1 sequence (Q96SW2 whole entry): as the sequence (Q96SW2 whole entry) above
T1 sequence (Q16531 whole entry partner): as the sequence (Q16531 whole entry partner) above
T6 sequence (P15170 whole entry): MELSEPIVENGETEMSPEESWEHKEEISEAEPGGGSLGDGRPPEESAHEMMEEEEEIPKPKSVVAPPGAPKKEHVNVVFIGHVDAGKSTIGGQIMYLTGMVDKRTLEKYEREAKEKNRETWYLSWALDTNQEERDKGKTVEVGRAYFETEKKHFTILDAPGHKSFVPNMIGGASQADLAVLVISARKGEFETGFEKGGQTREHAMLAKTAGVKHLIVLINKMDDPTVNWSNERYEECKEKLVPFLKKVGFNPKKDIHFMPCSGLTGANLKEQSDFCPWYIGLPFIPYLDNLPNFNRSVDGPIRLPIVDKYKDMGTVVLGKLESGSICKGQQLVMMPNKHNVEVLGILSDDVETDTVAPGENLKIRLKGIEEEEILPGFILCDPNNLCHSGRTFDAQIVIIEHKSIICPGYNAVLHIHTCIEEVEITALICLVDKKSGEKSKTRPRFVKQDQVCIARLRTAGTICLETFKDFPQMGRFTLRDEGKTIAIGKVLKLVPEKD
T6 sequence (Q96SW2 whole entry): as the sequence (Q96SW2 whole entry) above
T6 sequence (Q16531 whole entry partner): as the sequence (Q16531 whole entry partner) above
T3 sequence (Q9UKS7 whole entry): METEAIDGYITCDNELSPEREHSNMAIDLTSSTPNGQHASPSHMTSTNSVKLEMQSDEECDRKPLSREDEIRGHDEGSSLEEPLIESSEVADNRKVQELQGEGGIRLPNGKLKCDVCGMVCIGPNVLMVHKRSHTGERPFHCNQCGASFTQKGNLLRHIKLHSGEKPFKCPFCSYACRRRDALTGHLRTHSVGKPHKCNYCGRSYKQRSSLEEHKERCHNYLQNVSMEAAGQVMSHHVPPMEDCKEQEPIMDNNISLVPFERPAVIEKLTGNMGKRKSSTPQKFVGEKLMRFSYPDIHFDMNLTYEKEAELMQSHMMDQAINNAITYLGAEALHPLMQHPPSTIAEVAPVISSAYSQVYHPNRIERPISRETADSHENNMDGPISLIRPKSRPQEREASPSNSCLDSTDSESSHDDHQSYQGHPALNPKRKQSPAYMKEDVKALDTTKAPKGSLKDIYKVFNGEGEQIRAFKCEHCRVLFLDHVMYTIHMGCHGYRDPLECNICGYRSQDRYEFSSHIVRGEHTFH
T3 sequence (Q96SW2 whole entry): as the sequence (Q96SW2 whole entry) above
T3 sequence (Q16531 whole entry partner): as the sequence (Q16531 whole entry partner) above
T5 sequence (P48729 whole entry): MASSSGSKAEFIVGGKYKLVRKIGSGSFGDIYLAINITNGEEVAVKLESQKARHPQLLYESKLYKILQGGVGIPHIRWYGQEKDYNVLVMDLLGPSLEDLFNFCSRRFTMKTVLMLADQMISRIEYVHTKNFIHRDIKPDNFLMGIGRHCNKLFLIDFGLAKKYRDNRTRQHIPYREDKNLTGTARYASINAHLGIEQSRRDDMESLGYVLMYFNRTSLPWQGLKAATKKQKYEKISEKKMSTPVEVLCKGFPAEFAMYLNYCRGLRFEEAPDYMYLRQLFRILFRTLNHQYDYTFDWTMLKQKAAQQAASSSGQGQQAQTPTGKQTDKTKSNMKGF
T5 sequence (Q96SW2 whole entry): as the sequence (Q96SW2 whole entry) above
T5 sequence (Q16531 whole entry partner): as the sequence (Q16531 whole entry partner) above

Compound | Degradation of substrate protein WEE1 (substrate protein remaining %) (WEE1) | Degradation of substrate protein IKZF1 (substrate protein remaining %) (IKZF1) | Degradation of substrate protein IKZF2 (substrate protein remaining %) (IKZF2) | Degradation of substrate protein IKZF3 (substrate protein remaining %) (IKZF3) | Degradation of substrate protein CK1a (substrate protein remaining %) (CK1a) | Degradation of substrate protein GSPT1 (substrate protein remaining %) (GSPT1)
NCc1ccc(N2CCC(=O)NC2=O)nc1 [GT-07012, 1-(5-(aminomethyl)pyridin-2-yl)dihydropyrimidine-2,4(1H,3H)-dione] | A (A is defined as 0% ≤ substrate protein remaining % ≤ 80%) | B (B is defined as substrate protein remaining % > 80%) | B (B is defined as substrate protein remaining % > 80%) | A (A is defined as 0% ≤ substrate protein remaining % ≤ 80%) | B (B is defined as substrate protein remaining % > 80%) | A (A is defined as 0% ≤ substrate protein remaining % ≤ 80%)
O=C1CCN(c2cncc(CCl)c2)C(=O)N1 [GT-07047, 1-(5-(chloromethyl)pyridin-3-yl)dihydropyrimidine-2,4(1H,3H)-dione] | B (B is defined as substrate protein remaining % > 80%) | A (A is defined as 0% ≤ substrate protein remaining % ≤ 80%) | A (A is defined as 0% ≤ substrate protein remaining % ≤ 80%) | A (A is defined as 0% ≤ substrate protein remaining % ≤ 80%) | A (A is defined as 0% ≤ substrate protein remaining % ≤ 80%) | B (B is defined as substrate protein remaining % > 80%)
NCc1ccc(N2CCC(=O)NC2=O)cn1 [GT-07048, 1-(6-(aminomethyl)pyridin-3-yl)dihydropyrimidine-2,4(1H,3H)-dione] | B (B is defined as substrate protein remaining % > 80%) | A (A is defined as 0% ≤ substrate protein remaining % ≤ 80%) | A (A is defined as 0% ≤ substrate protein remaining % ≤ 80%) | A (A is defined as 0% ≤ substrate protein remaining % ≤ 80%) | A (A is defined as 0% ≤ substrate protein remaining % ≤ 80%) | A (A is defined as 0% ≤ substrate protein remaining % ≤ 80%)
O=C1CCC(c2cnc(CO)c(F)c2)C(=O)N1 (stereo not drawn) [GT-07049, 3-(5-fluoro-6-(hydroxymethyl)pyridin-3-yl)piperidine-2,6-dione] | B (B is defined as substrate protein remaining % > 80%) | B (B is defined as substrate protein remaining % > 80%) | A (A is defined as 0% ≤ substrate protein remaining % ≤ 80%) | A (A is defined as 0% ≤ substrate protein remaining % ≤ 80%) | A (A is defined as 0% ≤ substrate protein remaining % ≤ 80%) | A (A is defined as 0% ≤ substrate protein remaining % ≤ 80%)
O=C1CCC(c2cc(CO)ccn2)C(=O)N1 (stereo not drawn) [GT-07050, 3-(4-(hydroxymethyl)pyridin-2-yl)piperidine-2,6-dione] | B (B is defined as substrate protein remaining % > 80%) | A (A is defined as 0% ≤ substrate protein remaining % ≤ 80%) | B (B is defined as substrate protein remaining % > 80%) | A (A is defined as 0% ≤ substrate protein remaining % ≤ 80%) | A (A is defined as 0% ≤ substrate protein remaining % ≤ 80%) | A (A is defined as 0% ≤ substrate protein remaining % ≤ 80%)
O=C1CCC(c2cnc(F)c(CO)c2)C(=O)N1 (stereo not drawn) [GT-07074, 3-(6-fluoro-5-(hydroxymethyl)pyridin-3-yl)piperidine-2,6-dione] | B (B is defined as substrate protein remaining % > 80%) | B (B is defined as substrate protein remaining % > 80%) | A (A is defined as 0% ≤ substrate protein remaining % ≤ 80%) | A (A is defined as 0% ≤ substrate protein remaining % ≤ 80%) | B (B is defined as substrate protein remaining % > 80%) | A (A is defined as 0% ≤ substrate protein remaining % ≤ 80%)
O=C1CCC(c2ccc(CO)cn2)C(=O)N1 (stereo not drawn) [GT-07075, 3-(5-(hydroxymethyl)pyridin-2-yl)piperidine-2,6-dione] | B (B is defined as substrate protein remaining % > 80%) | B (B is defined as substrate protein remaining % > 80%) | A (A is defined as 0% ≤ substrate protein remaining % ≤ 80%) | A (A is defined as 0% ≤ substrate protein remaining % ≤ 80%) | B (B is defined as substrate protein remaining % > 80%) | A (A is defined as 0% ≤ substrate protein remaining % ≤ 80%)
NCc1cncc(N2CCC(=O)NC2=O)c1 [GT-07077, 1-(5-(aminomethyl)pyridin-3-yl)dihydropyrimidine-2,4(1H,3H)-dione] | B (B is defined as substrate protein remaining % > 80%) | B (B is defined as substrate protein remaining % > 80%) | B (B is defined as substrate protein remaining % > 80%) | B (B is defined as substrate protein remaining % > 80%) | B (B is defined as substrate protein remaining % > 80%) | A (A is defined as 0% ≤ substrate protein remaining % ≤ 80%)
O=C1CCN(c2cc(CCl)ccn2)C(=O)N1 [GT-07078, 1-(4-(chloromethyl)pyridin-2-yl)dihydropyrimidine-2,4(1H,3H)-dione] | B (B is defined as substrate protein remaining % > 80%) | B (B is defined as substrate protein remaining % > 80%) | B (B is defined as substrate protein remaining % > 80%) | B (B is defined as substrate protein remaining % > 80%) | B (B is defined as substrate protein remaining % > 80%) | A (A is defined as 0% ≤ substrate protein remaining % ≤ 80%)
O=C1CCC(Nc2ncccc2CO)C(=O)N1 (stereo not drawn) [GT-07197, 3-((3-(hydroxymethyl)pyridin-2-yl)amino)piperidine-2,6-dione] | B (B is defined as substrate protein remaining % > 80%) | B (B is defined as substrate protein remaining % > 80%) | B (B is defined as substrate protein remaining % > 80%) | B (B is defined as substrate protein remaining % > 80%) | A (A is defined as 0% ≤ substrate protein remaining % ≤ 80%) | A (A is defined as 0% ≤ substrate protein remaining % ≤ 80%)

— US20260274829A1, “NEW E3 UBIQUITIN LIGASE LIGAND, PROTEIN DEGRADATION AGENT AND USE THEREOF” (GLUETACS THERAPEUTICS (SHANGHAI) CO., LTD., priority 2023, published 2026)
